In patent US4870081A (priority 1986, dated 1989):
pIC50: −log10 of the molar value. Counter-ions that a name gives are not always drawn. Like-named read-outs stand apart in the source and are kept apart here.

Assays:
[1] = target: muscarinic receptors (rat cerebral cortex); assay: Radio ligand binding: displacement of the muscarinic agonist 3H-OXO-M (3H-Oxotremorine-M); parameters: species or system Hooded Lister rats; settings: 2 nM 3H-OXO-M, 2 mM magnesium chloride, 37° C., 30 min
[2] = target: muscarinic receptors (rat cerebral cortex); format: binding, Hooded Lister rats; settings: 0.27 nM 3H-QNB, 37° C., 30 min

SMILES | pIC50 [1] | pIC50 [2]
COC(=O)C1=CC2CCCN(C1)C2 (racemic) [E8, (±) Methyl 1-azabicyclo[3.3.1]non-3-en-3-yl carboxylate hydrochloride] | 6.93 | 5.39
CC(=O)O[C@@H]1C[C@H]2CCCN(C2)C1 (relative stereo) [E1, (±) exo-1-Azabicyclo[3.3.1]non-3-yl acetate hydrochloride] | 7.09 | 5.41
CCO[C@@H]1C[C@H]2CCCN(C2)C1 (relative stereo) [E2, (±) exo-3-Ethoxy-1-azabicyclo[3.3.1]nonane oxalate] | 6.68 | 5.19
NC(=O)O[C@@H]1C[C@H]2CCCN(C2)C1 (relative stereo) [E3, (±) exo-1-Azabicyclo[3.3.1]non-3-yl carbamate hydrochloride] | 6.99 | 4.44
COC(=O)[C@@H]1C[C@H]2CCCN(C2)C1 (relative stereo) [E4, (±) exo-Methyl 1-azabicyclo[3.3.1]non-3-yl carboxylate oxalate] | 7.09 | 5.41
COC(=O)[C@@H]1C[C@H]2CCCCN(C2)C1 (relative stereo) [E5, (±) exo-Methyl 1-azabicyclo[4.3.1]dec-8-yl carboxylate oxalate] | 6.82 | 5.49
CC(=O)O[C@H]1CN2CCC[C@H]1C2 (relative stereo) [E6, (±) exo-1-Azabicyclo[3.2.1]oct-6-yl acetate hydrochloride] | 7.09 | 4.57
COC(=O)[C@H]1CN2CCC[C@H]1C2 (relative stereo) [E7, (±) exo-Methyl 1-azabicyclo[3.2.1]oct-6-yl carboxylate hydrochloride] | 6.29 | 4.19
COC[C@@H]1C[C@H]2CCCN(C2)C1 (relative stereo) [E9, (±) exo-3-Methoxymethyl-1-azabicyclo[3.3.1]nonane oxalate salt] | 5.89 | 4.42
C#CCOC(=O)[C@@H]1C[C@H]2CCCN(C2)C1 (relative stereo) [E10, (±) exo-Propargyl 1-azabicyclo[3.3.1]non-3-yl-carboxylate oxylate salt] | 7.40 | 6.29
CNC(=O)O[C@@H]1C[C@H]2CCCN(C2)C1 (relative stereo) [E11, (±) exo-1-Azabicyclo[3.3.1]non-3-yl-N-methylcarbamate hydrochloride salt] | 6.34 | 5.28
CC(=O)O[C@H]1CN2CC[C@H]1C2 (relative stereo) [E12, (±) exo-1-Azabicyclo[2.2.1]hept-3-yl acetate oxalate salt] | 6.76 | 4.34
CCO[C@H]1CN2CC[C@H]1C2 (relative stereo) [E13, (±) exo-3-Ethoxy-1-azabicyclo[2.2.1]heptane oxalate salt] | 6.29 | 4.27
CC(=O)O[C@@H]1C[C@H]2CCN(C2)C1 (relative stereo) [E14, (±) exo-1-Azabicyclo[3.2.1]oct-3-yl acetate hydrochloride salt] | 7.42 | 4.85
COC(=O)[C@@H]1C[C@H]2CCN(C2)C1 (relative stereo) [E15, (±) exo-Methyl-1-azabicyclo[3.2.1]oct-3-yl carboxylate hydrochloride] | 7.10 | 4.96
COC(=O)[C@H]1CN2CC[C@H]1C2 (relative stereo) [E16, (±) exo-Methyl 1-azabicyclo[2.2.1]hept-3-yl carboxylate oxalate salt] | 6.72 | 4.22
CCC(=O)O[C@H]1CN2CCC[C@H]1C2 (relative stereo) [E17, (±) exo-1-Azabicyclo[3.2.1]oct-6-yl propionate hydrochloride] | 6.39 | 5.14
CCCO[C@H]1CN2CCC[C@H]1C2 (relative stereo) [E18, (±) exo-6-n-Propoxy-1-azabicyclo[3.2.1]octane hydrochloride] | 6.20 | 4.81
CCO[C@H]1CN2CCC[C@H]1C2 (relative stereo) [E19, (±) exo-6-Ethoxy-1-azabicycl9[3.2.1]octane hydrochloride] | 6.34 | 4.19
CNC(=O)O[C@H]1CN2CCC[C@H]1C2 (relative stereo) [E20, (±) exo-1-Azabicyclo[3.2.1]oct-6-yl-N-methylcarbamate oxalate salt] | 5.72 | 4.38
CCC(=O)O[C@@H]1C[C@H]2CCCN(C2)C1 (relative stereo) [E21, (±) exo-1-Azabicyclo[3.3.1]non-3-yl propionate hydrochloride salt] | 6.44 | 6.00
CO[C@@H]1C[C@H]2CCCN(C2)C1 (relative stereo) [E22, (±) exo-3-Methoxy-1-azabicyclo[3.3.1]nonane oxalate salt] | 5.30 | 3.77
CCCO[C@@H]1C[C@H]2CCCN(C2)C1 (relative stereo) [E23, (±) exo-3-n-Propoxy-1-azabicyclo[3.3.1]nonane oxalate salt] | 6.80 | 5.92
CN(C)C(=O)O[C@@H]1C[C@H]2CCCN(C2)C1 (relative stereo) [E24, (±) exo-1-Azabicyclo[3.3.1]non-3-yl-N,N-dimetnyl-carbamate hydrochloride] | 6.59 | 5.74
CCOC(=O)[C@@H]1C[C@H]2CCCN(C2)C1 (relative stereo) [E25, (±) exo-Ethyl 1-azabicyclo[3.3.1]non-3yl carboxylate oxalate salt] | 7.19 | 6.21
